Source: article PMC6669322, “Small Molecule Binding to Alzheimer Risk Factor CD33 Promotes Aβ Phagocytosis” (iScience, 2019)

Target: T1, CD33 H45A (Homo sapiens, UniProt P20138, H45A)
T1 construct: human CD33 ORF (NM_001772.3), lacking its signal peptide; expressed in transfected cells; host or cells: HEK293T, transient, pT8-SNAP vector
Assay: SNAP-tag homogeneous time-resolved fluorescence binding assay, CD33 H45A
Conditions: H45 mutated to alanine, in words
Method: We then used our structural data to design mutations of key residues interacting with P22 to assess which interactions were the most important for binding affinity. The residues were mutated into alanine, and the effect of these mutations on P22 binding affinity was assessed using a SNAP-tag homogeneous time-resolved fluorescence binding assay (see Transparent Methods and Figures 3E–3G). The R119A mutation, which destroys the salt bridge between P22 and CD33, was one of the most detrimental to binding (>30-fold loss) (Figure 2C and Table S4). […]
HEK293T cells were cultured in DMEM (ThermoFisher Scientific # 11965092) containing 10% FBS (Hyclone # SH30070.03) and 1% Penicillin-Streptomycin (ThermoFisher Scientific # 15140122) and transfected using Fugene HD (Promega # E2312) in 10 cm plates. […] The cells were counted, centrifuged and resuspended in PBS at a concentration of 1,000 cells/μL and 10 μL were plated into each well. […] Non-specific binding was assessed by competition with 100 μM of the non-labeled P22, as well as in control (Snap-tagged dopamine D2R receptor)-transfected cells.
Fluorescence was read with a PHERAstar plate reader using an excitation of 337 nm and emissions of 620 and 665 nm. […]

T1 sequence (P20138 18-364 H45A): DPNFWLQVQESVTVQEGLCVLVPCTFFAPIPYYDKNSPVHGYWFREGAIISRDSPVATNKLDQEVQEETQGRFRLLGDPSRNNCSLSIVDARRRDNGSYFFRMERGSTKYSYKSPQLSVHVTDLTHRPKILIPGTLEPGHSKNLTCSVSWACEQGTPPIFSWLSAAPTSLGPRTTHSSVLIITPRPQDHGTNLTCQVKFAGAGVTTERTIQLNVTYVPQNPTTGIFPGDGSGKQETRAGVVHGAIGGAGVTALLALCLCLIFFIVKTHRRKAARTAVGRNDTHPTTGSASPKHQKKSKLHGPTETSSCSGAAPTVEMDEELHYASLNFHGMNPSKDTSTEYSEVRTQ

- impact of mutation on P22 binding affinity: little to no significant impact
SMILES: Cc1cc(C(=O)NC[C@@H](O)[C@@H](O)[C@@H]2O[C@@](OC[C@H]3O[C@@H](O[C@H]4[C@H](O)[C@@H](O)[C@H](OCCN)O[C@@H]4CO)[C@H](O)[C@@H](O)[C@H]3O)(C(=O)O)C[C@H](O)[C@H]2NC(=O)Cn2cc(C3CCCCC3)nn2)cc(C)c1O [P22, β-D-Glucopyranoside, 2-aminoethyl O-[N-[2-(4-cyclohexyl-1H-1,2,3-triazol-1-yl)acetyl]-9-deoxy-9-[(4-hydroxy-3,5-dimethylbenzoyl)amino]-α-neuraminosyl] (2→6)-O-β-D-galactopyranosyl-(1→4)-]
